# Read-outs that look alike come from different tables or passages of the source.
# Key:
# Meprin β = target: T1, Meprin β (Homo sapiens, UniProt Q16820); assay: fluorogenic peptide cleavage assay; assay type: biochemical
# T1 construct: gene MEP1B
# T1 sequence (Q16820 62-652): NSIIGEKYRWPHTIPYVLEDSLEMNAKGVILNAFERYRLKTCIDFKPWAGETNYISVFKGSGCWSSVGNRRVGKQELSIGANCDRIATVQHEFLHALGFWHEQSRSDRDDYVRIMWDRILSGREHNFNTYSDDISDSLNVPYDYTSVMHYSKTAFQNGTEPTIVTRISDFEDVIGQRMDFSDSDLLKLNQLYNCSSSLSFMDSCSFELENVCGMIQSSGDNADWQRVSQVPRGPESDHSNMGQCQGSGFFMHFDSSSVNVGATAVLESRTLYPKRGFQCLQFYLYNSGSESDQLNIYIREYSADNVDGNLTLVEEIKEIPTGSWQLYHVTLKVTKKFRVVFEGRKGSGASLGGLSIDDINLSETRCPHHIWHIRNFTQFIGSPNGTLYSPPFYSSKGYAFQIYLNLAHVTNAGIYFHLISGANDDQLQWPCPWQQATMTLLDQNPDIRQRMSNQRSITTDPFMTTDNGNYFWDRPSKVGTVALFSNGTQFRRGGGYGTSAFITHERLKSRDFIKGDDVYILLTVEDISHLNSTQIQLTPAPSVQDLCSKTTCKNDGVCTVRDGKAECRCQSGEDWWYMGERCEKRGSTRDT
# Excerpt: fluorogenic peptide cleavage assay on Meprin β
# Meprin α = target: T2, Meprin α (Homo sapiens, UniProt Q16819); assay: fluorogenic peptide cleavage assay; assay type: biochemical
# T2 construct: gene MEP1A
# T2 sequence (Q16819 66-712): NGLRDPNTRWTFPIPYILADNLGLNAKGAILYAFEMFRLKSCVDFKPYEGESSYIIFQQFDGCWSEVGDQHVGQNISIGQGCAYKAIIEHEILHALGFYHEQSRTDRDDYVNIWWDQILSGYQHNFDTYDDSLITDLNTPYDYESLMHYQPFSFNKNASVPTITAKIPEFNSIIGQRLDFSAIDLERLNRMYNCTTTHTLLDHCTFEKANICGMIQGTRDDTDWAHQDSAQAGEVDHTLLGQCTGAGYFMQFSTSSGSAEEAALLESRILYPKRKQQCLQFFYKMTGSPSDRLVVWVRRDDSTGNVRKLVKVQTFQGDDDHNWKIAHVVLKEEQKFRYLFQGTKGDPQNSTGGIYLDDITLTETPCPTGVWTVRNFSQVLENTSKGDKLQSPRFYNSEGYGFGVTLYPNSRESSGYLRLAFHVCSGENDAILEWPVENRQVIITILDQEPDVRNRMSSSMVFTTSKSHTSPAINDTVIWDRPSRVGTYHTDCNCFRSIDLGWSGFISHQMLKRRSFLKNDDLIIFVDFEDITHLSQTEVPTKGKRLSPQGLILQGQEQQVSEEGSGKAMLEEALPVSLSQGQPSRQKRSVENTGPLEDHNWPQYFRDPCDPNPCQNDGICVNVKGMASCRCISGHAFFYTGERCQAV
# Excerpt: fluorogenic peptide cleavage assay on Meprin α
# [1] = […] Mca-YVADAPK-Dnp, […] enzyme, […] HEPES pH […] NaCl, […] CaCl2, […] °C
IC50 (Meprin β) [nM],IC50 (Meprin α) [nM],IC50 (Meprin β; [1]) [nM],IC50 (Meprin α; [1]) [nM],Molecule
744 ± 29,55 ± 11,,,CCCCC[C@H](CC(=O)NO)C(=O)N[C@H](C(=O)N1CCC[C@H]1CO)C(C)C [Actinonin]
> 10000,185 ± 12,,,CNC(=O)[C@H](Cc1c[nH]c2ccccc12)NC(=O)[C@@H](CC(=O)NO)CC(C)C [GM6001]
> 10000,393 ± 82,,,COc1ccc(CCN(CCC(=O)NO)S(=O)(=O)c2ccc(NC(=O)NCCc3ccccc3)cc2)cc1 [S33A]
,,> 10000,> 1000,FG‐2575
